Laboratory results as given in BigSolDB 2.1.

CC(=O)N[C@@H](C=O)[C@@H](O)[C@H](O)[C@H](O)CO
solubility (mole fraction)
Settings	283.15 K	288.15 K	293.15 K	298.15 K	303.15 K	308.15 K	313.15 K
in acetone	4.1e-05	7.2e-05	8.7e-05	0.000115	0.000161	0.000193	0.000241
in ethanol	0.000166	0.000223	0.000242	0.000268	0.000313	0.000342	0.000382
in methanol	0.000634	0.0007	0.000808	0.000907	0.00109	0.00136	0.00157
in n-propanol	7.3e-05	8.5e-05	0.000115	0.000166	0.000241	0.000324	0.000392
in water	0.0219	0.0236	0.0257	0.028	0.0302	0.0324	0.0344
